Source: the supplement of paper PMC10307832

Legend:
Assay in all cases: relative viability (nuclei count vs DMSO), 5 days (fraction); higher = more cells survive
[1] = system: NCI-H596
Outline: (§1)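 Lung cancer cell lines in 1536-well plates got either a single drug or a fixed anchor-drug dose together with five library-drug doses (not always all listed) in √10 steps, by pin tool, on the day after seeding. Nuclei were counted after 5 days, and relative viability is the treated-to-vehicle ratio of nuclei counts. Values are medians of duplicate plates.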

[2] = system: NCI-H1993
Outline: as §1

[3] = system: HCC-827
Outline: as §1

[4] = system: LU99A
Outline: as §1

[5] = system: NCI-H1944
Outline: as §1

[6] = system: SK-LU-1
Outline: as §1

[7] = system: LC-2-ad
Outline: as §1

[8] = system: NCI-H3122
Outline: as §1

[9] = system: NCI-H1915
Outline: as §1

[10] = system: HCC-15
Outline: as §1

[11] = system: RERF-LC-KJ
Outline: as §1

[12] = system: NCI-H1755
Outline: as §1

[13] = system: NCI-H522
Outline: as §1

[14] = system: LCLC-97TM1
Outline: as §1

[15] = system: COR-L 105
Outline: as §1

[16] = system: EKVX
Outline: as §1

[17] = system: SK-MES-1
Outline: as §1

[18] = system: BEN
Outline: as §1

[19] = system: HCC-366
Outline: as §1

[20] = system: NCI-H2342
Outline: as §1

[21] = system: COR-L23
Outline: as §1

[22] = system: PC-3 [JPC-3]
Outline: as §1

COCC1(CO)C(=O)C2CCN1CC2 (configuration not stated) [PRIMA-1MET] + Cc1nc(Nc2ncc(C(=O)Nc3c(C)cccc3Cl)s2)cc(N2CCN(CCO)CC2)n1 [Dasatinib] (partner 0.075 µM)
relative viability ([1]; first compound 0.2 µM): 0.701
relative viability ([1]; first compound 0.6325 µM): 0.563
relative viability ([1]; first compound 2 µM): 0.597
relative viability ([1]; first compound 6.325 µM): 0.79
relative viability ([1]; first compound 20 µM): 0.147
relative viability ([2]; first compound 0.2 µM): 0.596
relative viability ([2]; first compound 0.6325 µM): 0.587
relative viability ([2]; first compound 2 µM): 0.574
relative viability ([2]; first compound 6.325 µM): 0.554
relative viability ([2]; first compound 20 µM): 0.582
relative viability ([3]; first compound 0.2 µM): 0.417
relative viability ([3]; first compound 0.6325 µM): 0.337
relative viability ([3]; first compound 2 µM): 0.427
relative viability ([3]; first compound 6.325 µM): 0.332
relative viability ([3]; first compound 20 µM): 0.315
relative viability ([4]; first compound 0.2 µM): 0.612
relative viability ([4]; first compound 0.6325 µM): 0.513
relative viability ([4]; first compound 2 µM): 0.586
relative viability ([4]; first compound 6.325 µM): 0.671
relative viability ([4]; first compound 20 µM): 0.0333
relative viability ([5]; first compound 0.2 µM): 0.225
relative viability ([5]; first compound 0.6325 µM): 0.19
relative viability ([5]; first compound 2 µM): 0.213
relative viability ([5]; first compound 6.325 µM): 0.219
relative viability ([5]; first compound 20 µM): 0.232
relative viability ([6]; first compound 0.2 µM): 0.192
relative viability ([6]; first compound 0.6325 µM): 0.177
relative viability ([6]; first compound 2 µM): 0.186
relative viability ([6]; first compound 6.325 µM): 0.155
relative viability ([6]; first compound 20 µM): 0.0741
relative viability ([7]; first compound 0.2 µM): 0.346
relative viability ([7]; first compound 2 µM): 0.472
relative viability ([7]; first compound 6.325 µM): 0.584
relative viability ([7]; first compound 20 µM): 0.508
relative viability ([8]; first compound 0.2 µM): 0.382
relative viability ([8]; first compound 0.6325 µM): 0.806
relative viability ([8]; first compound 2 µM): 0.439
relative viability ([8]; first compound 6.325 µM): 0.433
relative viability ([8]; first compound 20 µM): 0.856
relative viability ([9]; first compound 0.2 µM): 0.328
relative viability ([9]; first compound 0.6325 µM): 0.284
relative viability ([9]; first compound 6.325 µM): 0.269
relative viability ([9]; first compound 20 µM): 0.272
relative viability ([10]; first compound 0.2 µM): 0.732
relative viability ([10]; first compound 0.6325 µM): 0.628
relative viability ([10]; first compound 2 µM): 0.639
relative viability ([10]; first compound 6.325 µM): 0.625
relative viability ([10]; first compound 20 µM): 0.181
relative viability ([11]; first compound 0.2 µM): 0.759
relative viability ([11]; first compound 0.6325 µM): 0.833
relative viability ([11]; first compound 2 µM): 0.931
relative viability ([11]; first compound 6.325 µM): 0.895
relative viability ([11]; first compound 20 µM): 0.673
relative viability ([12]; first compound 0.2 µM): 0.476
relative viability ([12]; first compound 0.6325 µM): 0.471
relative viability ([12]; first compound 2 µM): 0.397
relative viability ([12]; first compound 6.325 µM): 0.434
relative viability ([12]; first compound 20 µM): 0.423
relative viability ([13]; first compound 0.2 µM): 0.797
relative viability ([13]; first compound 0.6325 µM): 0.738
relative viability ([13]; first compound 2 µM): 0.852
relative viability ([13]; first compound 6.325 µM): 0.68
relative viability ([13]; first compound 20 µM): 0.0665
relative viability ([14]; first compound 0.2 µM): 0.461
relative viability ([14]; first compound 0.6325 µM): 1.01
relative viability ([14]; first compound 2 µM): 0.815
relative viability ([14]; first compound 6.325 µM): 0.855
relative viability ([14]; first compound 20 µM): 0.833
relative viability ([15]; first compound 0.2 µM): 0.346
relative viability ([15]; first compound 0.6325 µM): 0.404
relative viability ([15]; first compound 2 µM): 0.292
relative viability ([15]; first compound 6.325 µM): 0.161
relative viability ([15]; first compound 20 µM): 0.091
relative viability ([16]; first compound 0.2 µM): 0.469
relative viability ([16]; first compound 0.6325 µM): 0.482
relative viability ([16]; first compound 2 µM): 0.468
relative viability ([16]; first compound 6.325 µM): 0.518
relative viability ([16]; first compound 20 µM): 0.564
relative viability ([17]; first compound 0.2 µM): 0.303
relative viability ([17]; first compound 0.6325 µM): 0.475
relative viability ([17]; first compound 2 µM): 0.447
relative viability ([17]; first compound 6.325 µM): 0.286
relative viability ([17]; first compound 20 µM): 0.242
relative viability ([18]; first compound 0.2 µM): 0.306
relative viability ([18]; first compound 0.6325 µM): 0.279
relative viability ([18]; first compound 6.325 µM): 0.271
relative viability ([18]; first compound 20 µM): 0.339
relative viability ([19]; first compound 0.2 µM): 0.854
relative viability ([19]; first compound 0.6325 µM): 0.527
relative viability ([19]; first compound 2 µM): 0.619
relative viability ([19]; first compound 6.325 µM): 0.67
relative viability ([19]; first compound 20 µM): 0.318
relative viability ([20]; first compound 0.2 µM): 0.327
relative viability ([20]; first compound 0.6325 µM): 0.305
relative viability ([20]; first compound 2 µM): 0.347
relative viability ([20]; first compound 6.325 µM): 0.295
relative viability ([20]; first compound 20 µM): 0.333
relative viability ([21]; first compound 0.2 µM): 0.508
relative viability ([21]; first compound 0.6325 µM): 0.478
relative viability ([21]; first compound 2 µM): 0.595
relative viability ([21]; first compound 6.325 µM): 0.432
relative viability ([21]; first compound 20 µM): 0.0161
relative viability ([22]; first compound 0.2 µM): 0.977
relative viability ([22]; first compound 0.6325 µM): 0.977
relative viability ([22]; first compound 2 µM): 0.96
relative viability ([22]; first compound 6.325 µM): 0.933
relative viability ([22]; first compound 20 µM): 0.971
